Assay results as given in BigSolDB 2.1.

CN1C(C(=O)Nc2ccccn2)=C(O)c2sc(Cl)cc2S1(=O)=O
Settings	solubility (mole fraction)
in PEG-400, 298.15 K	0.00861
in PEG-400, 303.15 K	0.0099
in PEG-400, 308.15 K	0.0112
in PEG-400, 313.15 K	0.013
in PEG-400, 323.15 K	0.0171

in water
Settings	solubility (mole fraction)
298.15 K	2.9e-06
303.15 K	4.11e-06
308.15 K	5.62e-06
313.15 K	7.41e-06
323.15 K	1.2e-05
